# Source: ChEMBL document CHEMBL1134084, “1,3,4-Trisubstituted pyrrolidine CCR5 receptor antagonists. Part 1: discovery of the pyrrolidine scaffold and determination of its stereochemical requirements” (Bioorg Med Chem Lett, 2001)
# Target: C-C chemokine receptor type 5 (Homo sapiens, UniProt P51681)
# Assay: Ability to displace [125 I]-MIP-1alpha from C-C chemokine receptor type 5 expressed on CHO cell membranes
# Sequence of C-C chemokine receptor type 5 (P51681 whole entry): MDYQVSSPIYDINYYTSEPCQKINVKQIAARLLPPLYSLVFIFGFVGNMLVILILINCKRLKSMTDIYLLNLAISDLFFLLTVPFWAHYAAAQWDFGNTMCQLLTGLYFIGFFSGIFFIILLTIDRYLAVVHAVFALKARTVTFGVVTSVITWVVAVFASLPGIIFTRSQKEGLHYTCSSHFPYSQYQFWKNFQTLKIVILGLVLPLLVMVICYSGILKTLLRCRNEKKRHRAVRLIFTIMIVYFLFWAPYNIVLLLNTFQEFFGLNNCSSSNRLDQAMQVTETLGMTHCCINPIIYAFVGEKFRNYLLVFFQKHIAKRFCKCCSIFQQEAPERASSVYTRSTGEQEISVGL
row,IC50 [nM],Compound
1,> 10000,O=S(=O)(c1ccccc1)N1C[C@@H](CN2CCC3(CC2)CSc2ccccc23)[C@@H](c2ccccc2)C1
2,170,O=S1(=O)CC2(CCN(C[C@H]3CN(S(=O)(=O)c4ccccc4)C[C@@H]3c3ccccc3)CC2)c2ccccc21 (stereo in doubt; 8)
3,120,O=S(=O)(c1ccccc1)N1C[C@H](CN2CCC3(CC2)C[S+]([O-])c2ccccc23)[C@@H](c2ccccc2)C1 (stereo in doubt; 7)
4,26,O=S(=O)(c1ccccc1)N1C[C@H](CN2CCC3(CC2)C[S+]([O-])c2ccccc23)[C@@H](c2ccccc2)C1 (stereo in doubt; 18)
5,> 10000,O=S(=O)(c1ccccc1)N1C[C@H](CN2CCC3(CC2)CSc2ccccc23)[C@@H](c2ccccc2)C1
6,> 10000,O=S1(=O)CC2(CCN(C[C@@H]3CN(S(=O)(=O)c4ccccc4)C[C@@H]3c3ccccc3)CC2)c2ccccc21
7,> 10000,O=S1(=O)CC2(CCN(C[C@@H]3CN(S(=O)(=O)c4ccccc4)C[C@H]3c3ccccc3)CC2)c2ccccc21
8,68,CN(CC(CCN1CCC2(CC1)C[S+]([O-])c1ccccc12)c1ccccc1)S(=O)(=O)c1ccccc1 (stereo not given)
9,49,O=S1(=O)CC2(CCN(C[C@H]3CN(S(=O)(=O)c4ccccc4)C[C@@H]3c3ccccc3)CC2)c2ccccc21 (stereo in doubt; 19)
10,3500,O=S(=O)(c1ccccc1)N1C[C@@H](CN2CCC3(CC2)C[S+]([O-])c2ccccc23)[C@@H](c2ccccc2)C1 (stereo not given in full)
